Test results as given in PMC9574867, “Discovery and Characterization of Synthesized and FDA-Approved Inhibitors of Clostridial and Bacillary Collagenases” (Journal of Medicinal Chemistry, 2022).
“Also recorded” adds a separate entry of the source.

Experiments:
ColH-PD [1] = target: T1, ColH-PD (Hathewaya histolytica, UniProt Q46085); assay: biochemical; type: biochemical, C. histolyticum; details: 100 μM; read-out: Percent inhibition of ColH-PD
in vitro [2] = details: human, HepG2 cells (hepatocellular carcinoma)
ColA-CU = ColA-CU (Bacillus cereus, UniProt Q81BJ6); type: biochemical, B. cereus; details: rapid dilution
MMP-3 = target: T2, MMP-3 (Homo sapiens, UniProt P08254); assay: MMP inhibition assay, MMP-3; type: biochemical
T2 construct: catalytic domains of three human MMPs; purchased Sigma-Aldrich
Protocol: (§1) To assess the selectivity of the compounds over human MMPs and on other bacterial collagenases, selected compounds were tested against ColG-CU and ColH-PD from C. histolyticum and ColA-CU from B. cereus strain ATCC14579. In addition, the compounds were tested on catalytic domains of three human MMPs, which are characterized by different depths of the S1′ binding pocket (MMP-1 (shallow), −2 (intermediate), and −3 (deep)). They were also tested against other important human off-targets, which are involved in gene expression and the processing of TNF-α; these include HDAC-3, -8, TACE (ADAM-17),[33],[34] and COX-1.
(§2) The MMP inhibition assay (Sigma-Aldrich, Saint Louise, MO) was performed as previously reported and in accordance with the manufacturer’s instructions. The fluorescence signals were measured in a CLARIOstar plate reader (BMG LABTECH, Ortenberg, Germany) at a concentration of 100 μM.

ColQ1-CU [3] = target: T3, ColQ1-CU (Bacillus cereus, UniProt B9J3S4); type: binding, B. cereus; details: intact protein HPLC-MS, overnight treatment
ColQ1-CU [4] = target: T3, ColQ1-CU; assay: biochemical; design: species or system B. cereus strain Q1
in vitro [5] = details: human, HEK293 cells (embryonal kidney)
ColG-CU [6] = target: T4, ColG-CU (Hathewaya histolytica, UniProt Q9X721); type: biochemical, C. histolyticum; details: rapid dilution
ColG-CU [7] = target: T4, ColG-CU; assay: biochemical; type: biochemical, C. histolyticum; details: 100 μM; read-out: Percent inhibition of ColG-CU
COX-1 = COX-1 (Homo sapiens, UniProt P23219); assay: Human off-target inhibition, COX-1; type: biochemical
Protocol: as §1

ColH-PD [8] = target: T1, ColH-PD; type: biochemical, C. histolyticum
ColQ1-FL = ColQ1-FL (Bacillus cereus, UniProt B9J3S4); type: biochemical; details: SDS-PAGE
ColQ1-CU [9] = target: T3, ColQ1-CU; type: biochemical, B. cereus
MMP-2 = target: T5, MMP-2 (Homo sapiens, UniProt P08253); assay: MMP inhibition assay, MMP-2; type: biochemical
T5 construct: catalytic domains of three human MMPs; purchased Sigma-Aldrich
Protocol: as §1, §2

[10] = test system: Galleria mellonella larvae; assay: Galleria mellonella larvae treated with compound only in PBS; type: in vivo; details: no bacteria
Protocol: Figure 8 Survival analysis of Galleria mellonella larvae treated with Bacillus cereus AH187 with and without 14 and tiludronate disodium. Each curve represents results of three independent experiments; the statistical difference between groups treated with 100, 50, and 25 μM of compound 14 and B. cereus AH187 and with the group treated only with B. cereus AH187 is p < 0.0001, p = 0.0039, and p = 0.0173, respectively. The statistical difference between groups treated with 100 μM tiludronate disodium and with B. cereus AH187 is p = 0.0032 (log-rank test). The survival rate for the larvae treated with compound 14 and tiludronate disodium in PBS was 100%.
G. mellonella larvae were purchased from a fishing store. Injections were carried out using an LA120 syringe pump (Landgraf Laborsysteme, Langenhagen, Germany) equipped with 1 mL Injekt-F tuberculin syringes (B. Braun, Melsungen, Germany) and Sterican 0.30 × […], 30 G × 1.5 needles (B. Braun). The larvae were divided into five groups depending on their treatment: (i) sterile PBS, (ii) no injection, (iii) only compound, (iv) BC AH187 bacterial suspension, and (v) BC AH187 bacterial suspension with compound. Larvae were incubated at 37 °C for 3 days and inspected twice daily. The total larvae used in all three experiments were 40 larvae per group.

T3 sequence (B9J3S4 94-765 limits assumed): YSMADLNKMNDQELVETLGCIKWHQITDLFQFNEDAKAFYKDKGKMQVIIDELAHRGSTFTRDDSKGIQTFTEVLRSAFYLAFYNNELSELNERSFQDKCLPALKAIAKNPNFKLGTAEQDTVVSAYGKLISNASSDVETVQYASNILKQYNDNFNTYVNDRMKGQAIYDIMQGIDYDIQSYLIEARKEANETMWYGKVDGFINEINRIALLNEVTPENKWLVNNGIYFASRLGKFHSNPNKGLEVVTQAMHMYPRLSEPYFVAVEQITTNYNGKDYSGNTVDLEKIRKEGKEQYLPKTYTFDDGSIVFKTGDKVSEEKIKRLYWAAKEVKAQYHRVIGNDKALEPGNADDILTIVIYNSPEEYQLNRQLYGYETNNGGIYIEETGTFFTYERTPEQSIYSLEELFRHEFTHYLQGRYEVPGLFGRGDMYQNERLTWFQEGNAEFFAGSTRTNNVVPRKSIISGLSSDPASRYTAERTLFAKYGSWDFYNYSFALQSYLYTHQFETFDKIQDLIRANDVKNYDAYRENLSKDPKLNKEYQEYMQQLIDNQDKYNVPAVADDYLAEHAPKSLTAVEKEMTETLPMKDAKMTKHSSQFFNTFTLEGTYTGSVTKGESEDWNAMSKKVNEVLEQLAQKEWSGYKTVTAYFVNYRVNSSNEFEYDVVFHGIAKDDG
T1 sequence (Q46085 331-721 limits assumed): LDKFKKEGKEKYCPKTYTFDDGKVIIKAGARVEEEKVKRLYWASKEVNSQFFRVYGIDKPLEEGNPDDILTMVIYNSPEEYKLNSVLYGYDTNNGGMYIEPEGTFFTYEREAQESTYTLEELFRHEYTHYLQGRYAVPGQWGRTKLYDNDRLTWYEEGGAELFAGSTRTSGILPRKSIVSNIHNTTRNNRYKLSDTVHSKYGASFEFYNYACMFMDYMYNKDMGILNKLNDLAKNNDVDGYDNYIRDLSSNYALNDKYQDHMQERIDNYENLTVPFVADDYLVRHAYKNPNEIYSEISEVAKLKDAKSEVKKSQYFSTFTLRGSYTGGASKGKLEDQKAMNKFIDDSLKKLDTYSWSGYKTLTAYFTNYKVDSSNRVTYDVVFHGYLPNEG
T4 sequence (Q9X721 111-786): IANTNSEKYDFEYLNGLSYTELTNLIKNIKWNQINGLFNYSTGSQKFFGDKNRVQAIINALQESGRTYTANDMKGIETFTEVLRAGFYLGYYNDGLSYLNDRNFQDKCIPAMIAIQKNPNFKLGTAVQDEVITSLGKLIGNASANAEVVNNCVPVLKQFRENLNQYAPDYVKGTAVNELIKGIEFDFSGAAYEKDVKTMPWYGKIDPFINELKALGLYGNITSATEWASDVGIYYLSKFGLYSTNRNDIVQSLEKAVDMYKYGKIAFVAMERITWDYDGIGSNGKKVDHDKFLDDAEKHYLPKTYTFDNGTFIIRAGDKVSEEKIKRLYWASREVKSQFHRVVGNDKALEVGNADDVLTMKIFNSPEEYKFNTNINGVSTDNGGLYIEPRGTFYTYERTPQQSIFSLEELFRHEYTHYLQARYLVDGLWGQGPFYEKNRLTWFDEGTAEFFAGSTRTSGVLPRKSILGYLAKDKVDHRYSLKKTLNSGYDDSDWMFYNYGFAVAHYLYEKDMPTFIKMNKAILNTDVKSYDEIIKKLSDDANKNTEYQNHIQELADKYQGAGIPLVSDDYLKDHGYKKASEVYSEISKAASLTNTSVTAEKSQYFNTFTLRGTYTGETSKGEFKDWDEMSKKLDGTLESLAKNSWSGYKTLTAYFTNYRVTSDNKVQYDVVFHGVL
T5 sequence (P08253 110-444 limits assumed): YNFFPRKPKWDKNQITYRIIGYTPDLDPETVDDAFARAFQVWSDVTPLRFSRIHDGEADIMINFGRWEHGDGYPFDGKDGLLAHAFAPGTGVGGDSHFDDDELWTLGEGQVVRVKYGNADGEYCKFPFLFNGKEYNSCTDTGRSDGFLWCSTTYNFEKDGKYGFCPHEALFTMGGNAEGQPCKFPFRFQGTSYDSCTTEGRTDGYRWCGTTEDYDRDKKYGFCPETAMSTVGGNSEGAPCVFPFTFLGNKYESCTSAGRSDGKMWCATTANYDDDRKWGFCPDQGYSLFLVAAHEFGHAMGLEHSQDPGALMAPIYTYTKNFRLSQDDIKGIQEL
Sequence of COX-1 (P23219 24-599): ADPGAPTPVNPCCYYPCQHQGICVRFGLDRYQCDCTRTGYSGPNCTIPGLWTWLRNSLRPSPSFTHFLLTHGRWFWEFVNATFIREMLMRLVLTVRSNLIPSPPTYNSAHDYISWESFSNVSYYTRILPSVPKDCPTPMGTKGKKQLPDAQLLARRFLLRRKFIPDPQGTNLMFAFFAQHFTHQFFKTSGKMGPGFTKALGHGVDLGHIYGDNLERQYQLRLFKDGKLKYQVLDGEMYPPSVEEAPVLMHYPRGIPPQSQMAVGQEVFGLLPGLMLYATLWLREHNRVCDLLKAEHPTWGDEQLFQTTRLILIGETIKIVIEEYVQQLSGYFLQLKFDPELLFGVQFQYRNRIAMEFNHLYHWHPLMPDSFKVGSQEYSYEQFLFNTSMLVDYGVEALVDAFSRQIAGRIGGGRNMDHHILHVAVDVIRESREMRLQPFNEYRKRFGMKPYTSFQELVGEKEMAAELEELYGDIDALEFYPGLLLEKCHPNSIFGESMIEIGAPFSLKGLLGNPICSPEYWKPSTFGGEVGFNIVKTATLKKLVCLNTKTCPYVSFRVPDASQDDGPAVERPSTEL
Sequence of ColQ1-FL (B9J3S4 94-965 limits assumed): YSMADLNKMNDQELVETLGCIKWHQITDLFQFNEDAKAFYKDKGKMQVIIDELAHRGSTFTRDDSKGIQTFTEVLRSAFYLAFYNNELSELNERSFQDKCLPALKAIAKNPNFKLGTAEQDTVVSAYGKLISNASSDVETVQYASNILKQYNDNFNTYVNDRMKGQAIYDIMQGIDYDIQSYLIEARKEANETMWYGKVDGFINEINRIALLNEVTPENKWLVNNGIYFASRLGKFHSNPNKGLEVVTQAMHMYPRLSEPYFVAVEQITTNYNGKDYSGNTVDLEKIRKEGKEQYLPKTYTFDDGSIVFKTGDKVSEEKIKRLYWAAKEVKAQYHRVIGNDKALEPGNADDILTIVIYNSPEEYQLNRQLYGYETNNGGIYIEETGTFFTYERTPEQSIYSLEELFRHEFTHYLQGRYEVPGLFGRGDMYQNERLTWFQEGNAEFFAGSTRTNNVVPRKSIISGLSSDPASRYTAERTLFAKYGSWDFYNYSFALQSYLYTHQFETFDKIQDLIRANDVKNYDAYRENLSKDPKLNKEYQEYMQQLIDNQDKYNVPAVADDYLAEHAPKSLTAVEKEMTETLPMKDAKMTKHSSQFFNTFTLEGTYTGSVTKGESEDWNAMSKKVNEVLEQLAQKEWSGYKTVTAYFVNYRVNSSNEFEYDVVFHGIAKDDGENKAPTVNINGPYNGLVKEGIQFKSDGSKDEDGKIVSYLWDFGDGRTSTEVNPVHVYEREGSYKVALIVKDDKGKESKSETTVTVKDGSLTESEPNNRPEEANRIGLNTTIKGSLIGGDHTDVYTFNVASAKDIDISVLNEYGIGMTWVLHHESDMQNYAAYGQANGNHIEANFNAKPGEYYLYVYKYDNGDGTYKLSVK
T2 sequence (P08254 100-272 limits assumed): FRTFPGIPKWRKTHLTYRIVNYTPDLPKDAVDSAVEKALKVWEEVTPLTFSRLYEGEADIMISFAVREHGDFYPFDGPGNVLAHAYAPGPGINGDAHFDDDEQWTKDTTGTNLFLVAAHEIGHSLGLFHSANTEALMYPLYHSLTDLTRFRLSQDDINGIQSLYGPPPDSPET
Sequence of ColA-CU (Q81BJ6 93-764): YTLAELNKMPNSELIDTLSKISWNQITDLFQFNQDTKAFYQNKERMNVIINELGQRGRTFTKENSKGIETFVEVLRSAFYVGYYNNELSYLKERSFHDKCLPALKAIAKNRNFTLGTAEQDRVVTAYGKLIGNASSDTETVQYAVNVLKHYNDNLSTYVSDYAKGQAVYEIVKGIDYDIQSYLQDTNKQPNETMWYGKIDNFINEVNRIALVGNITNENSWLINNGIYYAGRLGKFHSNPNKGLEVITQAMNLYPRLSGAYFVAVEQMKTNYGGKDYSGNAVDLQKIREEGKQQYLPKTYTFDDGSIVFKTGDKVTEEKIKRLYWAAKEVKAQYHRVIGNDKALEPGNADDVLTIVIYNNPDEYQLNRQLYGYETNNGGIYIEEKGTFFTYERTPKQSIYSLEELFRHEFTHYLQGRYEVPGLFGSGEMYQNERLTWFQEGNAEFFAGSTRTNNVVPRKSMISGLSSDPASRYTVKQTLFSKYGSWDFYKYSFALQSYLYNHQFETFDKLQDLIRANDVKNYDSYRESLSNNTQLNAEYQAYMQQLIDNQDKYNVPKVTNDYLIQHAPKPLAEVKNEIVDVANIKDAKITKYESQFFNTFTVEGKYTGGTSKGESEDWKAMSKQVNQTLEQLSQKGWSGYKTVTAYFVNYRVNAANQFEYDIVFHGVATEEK

O=P(O)(O)c1nc2cc(Cl)c(Cl)cc2nc1P(=O)(O)O [Compound 13, (6,7-Dichloroquinoxaline-2,3-diyl)bis(phosphonic acid)]
inhibition at 100 µM (ColH-PD [1]): 83 ± 9% | IC50 (in vitro [2]): > 100 µM | Reversibility of inhibition, ColA-CU (ColA-CU): only a minimal inhibition | IC50 (MMP-3): 33 ± 11 µM | Covalent modification of ColQ1-CU (ColQ1-CU [3]): No molecular masses displayed a mass shift indicating a covalently bound inhibitor; also recorded: did not result in a covalent modification | IC50 (ColQ1-CU [4]): 5.2 ± 0.4 µM | inhibition at 100 µM (ColQ1-CU [4]; read-out: % Inhibition (ColQ1-CU) Mean): 98 ± 1% | IC50 (in vitro [5]): 100 µM | Reversibility of inhibition, ColG (ColG-CU [6]): rapidly reversible inhibitors | inhibition at 100 µM (ColG-CU [7]): 68 ± 4% | IC50 (COX-1): > 100 µM | Reversibility of inhibition, ColH (ColH-PD [8]): reversed compared to ColA | Concentration above which Col I chains were maintained (ColQ1-FL; 1 mg/mL Col I, 50 ng ColQ1-FL): above 3 μM | Residual activity after rapid dilution (ColQ1-CU [9]; 30 min preincubation at 10-fold IC50, 100-fold dilution): less than 9% | Reversibility of inhibition, ColQ1-CU (ColQ1-CU [9]; rapid dilution): very slowly dissociating reversible binder | IC50 (MMP-2): 79 ± 2 µM

O=C(Nc1ccc(Cl)c(Cl)c1)c1ccc2nc(P(=O)(O)O)c(P(=O)(O)O)nc2c1 [Compound 14, (6-((3,4-Dichlorophenyl)carbamoyl)quinoxaline-2,3-diyl)bis(phosphonic acid)]
inhibition at 100 µM (ColH-PD [1]): 96 ± 2% | IC50 (in vitro [2]): > 100 µM | IC50 (MMP-3): > 100 µM | IC50 (ColQ1-CU [4]): 16 ± 1 µM | Survival rate of larvae treated with compound in PBS [10]: 100% | IC50 (in vitro [5]): > 100 µM | inhibition at 100 µM (ColG-CU [7]): 72 ± 3% | IC50 (COX-1): > 100 µM | Protection of Col I chains from cleavage by ColQ1-FL (ColQ1-FL; 12.5–1.5 μM tested): inhibited the collagenase activity at all concentrations tested | IC50 (MMP-2): > 100 µM
